Laboratory results published in patent publication US6514507B2, “Hydroxydecenoic acid compounds for promoting desquamation/epidermal renewal of the skin and/or combating skin aging” (Societe L'Oreal S.A., priority 1998, dated 2003).

System: differentiated human keratinocytes
Assay: in vitro screening of desquamating activity (release of corneocytes, cellular detachment index, flow cytometer)
Format: cell-based
Details: for % of activity with respect to the control composed of an identical culture in the absence of compound (cellular detachment index): compounds at 5 × 10^−5 M, difference between T60 and T0 (60 minutes after addition), corneocytes counted by flow cytometer
Experimental: This test of in vitro screening of an agent which is active with regard to desquamation was carried out on differentiated human keratinocytes. The principle of the test is based on the fact that desquamation induces the release of corneocytes. The desquamating power of the test product increases as the number of corneocytes released increases.
The protocol of the test was as follows: starting with biopsies of human skin, the keratinocytes obtained by separation from the epidermis were dissociated by enzymatic action with trypsin and were cultured at a concentration of 2×10^5 cell/ml. The growth and differentiation of the keratinocytes was obtained by culturing for 10 to 20 days in a specific medium. The activity of the test product was then evaluated after removal of the culture medium. To do this, two samples were taken at T0 and T60, that namely, before the addition of the product and 60 minutes after this addition. The samples thus taken were analyzed with a flow cytometer in order to count the population of corneocytes. The flow cytometer made it possible to distinguish the populations of corneocytes and of keratinocytes by treatment with acridine orange, which is specific for cellular DNA.
The cellular detachment index was determined by the difference between T60 and T0. The same measurement was carried out for a control not comprising test product, because the experiment inevitably produced the release of corneocytes, even in the absence of active principles.
The test was carried out with 10-hydroxy-2-decenoic acid at a concentration of 5×10^−5M.

Structure (SMILES) | activity with regard to cellular detachment (5 × 10^−5 M, differentiated human keratinocytes) | % of activity with respect to the control composed of an identical culture in the absence of compound (cellular detachment index) [%]
O=C(O)C=CCCCCCCCO [10-Hydroxy-2-decenoic acid] | high | 110
CCCCCCCC(=O)c1ccc(O)c(C(=O)O)c1 [Reference, 2-Hydroxy-5-octanoylbenzoic acid, reference compound] |  | 92
